Six compounds from ChEMBL document CHEMBL4602695, “Discovery and SARs of 5-Chloro-N4-phenyl-N2-(pyridin-2-yl)pyrimidine-2,4-diamine Derivatives as Oral Available and Dual CDK 6 and 9 Inhibitors with Potent Antitumor Activity” (J Med Chem, 2020) can be followed below.

Data set [1] has as its system MDA-MB-231. In words: Antiproliferative activity against human MDA-MB-231 cells assessed as inhibition of cell proliferation measured after 48 hrs by CCK8 assay. The class given is functional, cell-based. Particulars: for GI50: MDA-MB-231, 48 h. A general note: Tetrazolium dyes change colour on reduction, which living cells bring about.
For the next data set, the target named is CDK6/cyclin D3 (Homo sapiens, UniProt Q00534). Further details: species or system Sf9.
Sequence of CDK6/cyclin D3 (P30281 whole entry): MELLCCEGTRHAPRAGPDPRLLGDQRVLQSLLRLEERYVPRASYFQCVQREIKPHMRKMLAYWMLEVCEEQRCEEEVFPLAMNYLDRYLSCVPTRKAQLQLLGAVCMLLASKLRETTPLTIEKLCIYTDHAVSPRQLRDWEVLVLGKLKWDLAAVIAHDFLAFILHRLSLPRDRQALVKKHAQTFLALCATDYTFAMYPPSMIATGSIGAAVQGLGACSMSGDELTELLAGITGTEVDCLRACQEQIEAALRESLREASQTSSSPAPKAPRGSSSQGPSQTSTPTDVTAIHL
Sequence of CDK6/cyclin D3 (Q00534 whole entry): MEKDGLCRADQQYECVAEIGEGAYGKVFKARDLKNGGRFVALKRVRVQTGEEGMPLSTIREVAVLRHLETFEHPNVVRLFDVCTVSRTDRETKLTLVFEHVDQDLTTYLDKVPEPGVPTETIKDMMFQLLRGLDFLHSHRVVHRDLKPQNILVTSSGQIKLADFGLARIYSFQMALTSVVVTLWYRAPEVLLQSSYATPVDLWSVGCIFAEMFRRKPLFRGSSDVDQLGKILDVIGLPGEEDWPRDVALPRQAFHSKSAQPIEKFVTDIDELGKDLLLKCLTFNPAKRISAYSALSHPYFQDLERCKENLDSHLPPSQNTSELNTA
The target in a further data set is CDK2/Cyclin A2 (Homo sapiens, UniProt P24941). More on the design: species or system Sf9.
In a further data set the test system is MCF7. In words: Antiproliferative activity against human MCF7 cells assessed as inhibition of cell proliferation measured after 48 hrs by CCK8 assay. The class given is functional, cell-based. The conditions noted are these: for GI50: MCF7, 48 h.
A short description of data set [2]: Cytotoxicity against human L02 cells assessed as inhibition of cell proliferation measured after 48 hrs by CCK8 assay. Format: cell-based.
The next data set has as its system Jurkat. The data set is described as follows: Antiproliferative activity against human Jurkat cells assessed as inhibition of cell proliferation measured after 48 hrs by CCK8 assay. The class given is functional, cell-based.
For another data set, the target named is CDK9/Cyclin K (Homo sapiens, UniProt P50750). The data set is described as follows: biochemical.
Sequence of CDK9/Cyclin K (P50750 whole entry): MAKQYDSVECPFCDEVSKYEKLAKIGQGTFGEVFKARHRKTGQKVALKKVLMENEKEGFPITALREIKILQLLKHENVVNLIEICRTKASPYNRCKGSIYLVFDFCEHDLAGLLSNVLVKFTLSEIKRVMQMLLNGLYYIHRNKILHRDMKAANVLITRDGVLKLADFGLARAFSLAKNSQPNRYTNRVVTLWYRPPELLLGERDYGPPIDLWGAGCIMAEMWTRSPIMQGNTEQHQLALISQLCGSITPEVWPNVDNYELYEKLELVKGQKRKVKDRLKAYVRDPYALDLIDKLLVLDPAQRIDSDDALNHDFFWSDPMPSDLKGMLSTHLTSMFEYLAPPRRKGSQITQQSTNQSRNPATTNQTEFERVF
Sequence of CDK9/Cyclin K (O75909 whole entry, further chain): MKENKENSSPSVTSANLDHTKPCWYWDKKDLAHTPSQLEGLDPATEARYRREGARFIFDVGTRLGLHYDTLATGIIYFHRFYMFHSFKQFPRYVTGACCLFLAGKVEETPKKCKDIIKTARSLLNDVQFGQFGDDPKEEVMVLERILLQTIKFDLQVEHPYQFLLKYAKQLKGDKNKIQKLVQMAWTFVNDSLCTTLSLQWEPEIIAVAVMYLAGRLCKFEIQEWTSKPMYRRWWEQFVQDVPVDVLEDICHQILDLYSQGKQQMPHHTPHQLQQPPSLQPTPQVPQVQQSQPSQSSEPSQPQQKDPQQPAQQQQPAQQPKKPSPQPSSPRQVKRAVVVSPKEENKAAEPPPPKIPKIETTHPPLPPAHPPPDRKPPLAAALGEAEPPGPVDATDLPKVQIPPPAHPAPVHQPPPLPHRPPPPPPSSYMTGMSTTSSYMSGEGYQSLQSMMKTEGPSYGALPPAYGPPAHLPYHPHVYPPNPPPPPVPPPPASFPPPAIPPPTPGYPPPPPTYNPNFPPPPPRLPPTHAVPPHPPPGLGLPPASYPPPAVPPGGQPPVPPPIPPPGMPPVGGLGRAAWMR
Data set [3] concerns MDA-MB-231. The data set is described as follows: Effect on CDK6 expression in human MDA-MB-231 cells at 4 to 12 uM measured after 48 hrs by Western blot analysis. The class given is functional, cell-based. In general terms: A western blot detects proteins with antibodies after separation by electrophoresis.
Data set [4] concerns MDA-MB-231. In words: Induction of apoptosis in human MDA-MB-231 cells xenografted in BALB/c nu/nu mouse assessed as increase in nucleoplasm staining at 22.5 to 90 mg/kg, po administered once daily for 3 weeks measured post-last dose by H and E staining based histopathological analysis. Format: functional, organism-based. In general terms: A xenograft is tissue or cells of one species grown in another, often human tumour cells in immunodeficient mice.

In data set [5] the target is Cyclin-dependent kinase 9 (Homo sapiens) (UniProt P50750). In words: Inhibition of CDK9 in human MDA-MB-231 cells assessed as down regulation of cyclin T1 expression at 4 to 12 uM measured after 48 hrs by Western blot analysis. The class given is cell-based.
Sequence of Cyclin-dependent kinase 9 (Homo sapiens) (P50750 whole entry, the tested form may be a part): as the sequence (P50750 whole entry) above
Data set [6] deals with Cyclin-C/Cyclin-dependent kinase 19 (Homo sapiens) (UniProt Q9BWU1+P24863). The data set is described as follows: Inhibition of recombinant human GST-tagged/His-tagged CDK11 (1 to 502 residues)/cyclinC (1 to 283 residues) expressed in insect cells at 1 uM using PAK1 (148 to 210 residues) as substrate measured after 10 to 60 mins by ADP-glo assay relative to control.
The target in data set [7] is CDK9/cyclin T1 (Homo sapiens) (UniProt O60563+P50750). The data set is described as follows: Binding affinity to recombinant His-tagged CDK9/cyclin T1 (unknown origin) expressed in HEK293T cells assessed as thermal stabilization of protein at 10 uM measured for 3 mins at 57 degC by CETSA. The class given is cell-based. Particulars: HEK-293T.
The subject of data set [8] is MDA-MB-231. The data set is described as follows: Antitumor activity against human MDA-MB-231 cells xenografted in po dosed BALB/c nu/nu mouse assessed as tumor growth inhibition administered once daily for 3 weeks and measured at 3 days interval during compound dosing. The class given is functional, organism-based.
Data set [9] deals with MDA-MB-231. In words: Induction of intracellular reactive oxygen species production in human MDA-MB-231 cells measured after 48 hrs by DCFH-DA probe based flow cytometry. The class given is functional, cell-based.
The subject of data set [10] is MDA-MB-231. The data set is described as follows: Effect on CDK9 expression in human MDA-MB-231 cells at 4 to 12 uM measured after 48 hrs by Western blot analysis. Format: functional, cell-based.
Data set [11] addresses Cyclin-dependent kinase 9 (Homo sapiens) (UniProt P50750). In words: Inhibition of CDK9 in human MDA-MB-231 cells assessed as down regulation of p-Pol II CTD S2 expression at 4 to 12 uM measured after 48 hrs by Western blot analysis. Format: cell-based.
Data set [12] has as its target CDK3/Cyclin E (Homo sapiens) (UniProt P24864+Q00526). Particulars: Sf9, 1 uM.
Data set [13] deals with MDA-MB-231. In words: Induction of apoptosis in human MDA-MB-231 cells xenografted in BALB/c nu/nu mouse assessed as increase in intracellular space at 22.5 to 90 mg/kg, po administered once daily for 3 weeks measured post-last dose by H and E staining based histopathological analysis. The class given is functional, organism-based.
The target of data set [14] is Cyclin-dependent kinase 6 (Homo sapiens) (UniProt Q00534). In words: Inhibition of CDK6 in human MDA-MB-231 cells assessed as down regulation of p-Rb expression at 4 to 12 uM measured after 48 hrs by Western blot analysis. Format: cell-based.
Sequence of Cyclin-dependent kinase 6 (Homo sapiens) (Q00534 whole entry): as the sequence (Q00534 whole entry) above
For data set [15], the target named is Cyclin-dependent kinase 9 (Homo sapiens) (UniProt P50750). The data set is described as follows: Inhibition of CDK9 in human MDA-MB-231 cells assessed as reduction in Mcl-1 mRNA level at 4 to 12 uM by trizol reagent based qRT-PCR analysis. The class given is cell-based.
For data set [16], the system named is MDA-MB-231. In words: Induction of apoptosis in human MDA-MB-231 cells xenografted in BALB/c nu/nu mouse assessed as increase in cytoplasm shrinkage at 22.5 to 90 mg/kg, po administered once daily for 3 weeks measured post-last dose by H and E staining based histopathological analysis. Format: functional, organism-based.
In data set [17] the target is T1, CDK6/cyclin D3 (Homo sapiens) (UniProt P30281+Q00534). In words: Binding affinity to recombinant His-tagged CDK6/cyclin D3 (unknown origin) expressed in HEK293T cells assessed as thermal stabilization of protein at 10 uM measured for 3 mins at 57 degC by CETSA. Format: cell-based. The conditions noted are these: HEK-293T.
The target of data set [18] is Cyclin-dependent kinase 9 (Homo sapiens) (UniProt P50750). The data set is described as follows: Inhibition of CDK9 in human MDA-MB-231 cells assessed as reduction in c-Myc mRNA level at 4 to 12 uM by trizol reagent based qRT-PCR analysis. The class given is cell-based.
Data set [19] deals with Cyclin-dependent kinase 6 (Homo sapiens) (UniProt Q00534). The data set is described as follows: Inhibition of CDK6 in human MDA-MB-231 cells assessed as down regulation of E2F1 expression at 4 to 12 uM measured after 48 hrs by Western blot analysis. Format: cell-based.
The target of data set [20] is T1, CDK6/cyclin D3 (Homo sapiens). The conditions noted are these: Sf9.
Data set [21] addresses CDK9/Cyclin K (Homo sapiens) (UniProt P50750+O75909). The conditions noted are these: Sf9.
Data set [22] relates to MDA-MB-231. The data set is described as follows: Antitumor activity against human MDA-MB-231 cells xenografted in BALB/c nu/nu mouse assessed as tumor growth inhibition at 45 mg/kg, po administered once daily for 3 weeks and measured at 3 days interval during compound dosing. The class given is functional, organism-based.
Data set [23] is described as follows: Thermodynamic equilibrium solubility in water by HPLC-based shake flask method. Format: physicochemical. Particulars: read-out: Therm_solubility.
A short description of data set [24]: Thermodynamic equilibrium solubility in normal saline by HPLC-based shake flask method. The conditions noted are these: read-out: Therm_solubility. Format: physicochemical.
Data set [25] deals with MDA-MB-231. The data set is described as follows: Cell cycle arrest in human MDA-MB-231 cells assessed as accumulation at S phase at 20 uM measured after 48 hrs by propidium iodide staining based flow cytometry (reference value: 26.45%). The class given is functional.
The test system of data set [26] is MDA-MB-231. The data set is described as follows: Cell cycle arrest in human MDA-MB-231 cells assessed as accumulation at G0/G1 phase at 20 uM measured after 48 hrs by propidium iodide staining based flow cytometry (reference value: 57.65%). Format: functional.
Data set [27] deals with MDA-MB-231. In words: Induction of apoptosis in human MDA-MB-231 cells assessed as early apoptotic cells at 20 uM measured after 48 hrs by Annexin V-FITC/propidium iodide staining based flow cytometry (0.877%). The class given is functional.
Data set [28] relates to MDA-MB-231. The data set is described as follows: Induction of apoptosis in human MDA-MB-231 cells assessed as viable cells at 20 uM measured after 48 hrs by Annexin V-FITC/propidium iodide staining based flow cytometry (95.8%). The class given is functional. The conditions noted are these: MDA-MB-231, 48 h, read-out: Activity.
In data set [29] the test system is MDA-MB-231. In words: Induction of apoptosis in human MDA-MB-231 cells assessed as necrotic cells at 20 uM measured after 48 hrs by Annexin V-FITC/propidium iodide staining based flow cytometry (0.498%). The class given is functional.
The subject of data set [30] is MDA-MB-231. The data set is described as follows: Induction of apoptosis in human MDA-MB-231 cells assessed as late apoptotic cells at 20 uM measured after 48 hrs by Annexin V-FITC/propidium iodide staining based flow cytometry (2.78%). The class given is functional.
For data set [31], the system named is MDA-MB-231. The data set is described as follows: Cell cycle arrest in human MDA-MB-231 cells assessed as accumulation at G2/M phase at 20 uM measured after 48 hrs by propidium iodide staining based flow cytometry (reference value: 15.9%). The class given is functional.

Each structure is given as a SMILES string. pIC50: −log10 of the molar value. The source made the active and inactive calls. The rule behind the calls is not given here.

Sequence of CDK3/Cyclin E (Homo sapiens) (P24864 whole entry, looked up): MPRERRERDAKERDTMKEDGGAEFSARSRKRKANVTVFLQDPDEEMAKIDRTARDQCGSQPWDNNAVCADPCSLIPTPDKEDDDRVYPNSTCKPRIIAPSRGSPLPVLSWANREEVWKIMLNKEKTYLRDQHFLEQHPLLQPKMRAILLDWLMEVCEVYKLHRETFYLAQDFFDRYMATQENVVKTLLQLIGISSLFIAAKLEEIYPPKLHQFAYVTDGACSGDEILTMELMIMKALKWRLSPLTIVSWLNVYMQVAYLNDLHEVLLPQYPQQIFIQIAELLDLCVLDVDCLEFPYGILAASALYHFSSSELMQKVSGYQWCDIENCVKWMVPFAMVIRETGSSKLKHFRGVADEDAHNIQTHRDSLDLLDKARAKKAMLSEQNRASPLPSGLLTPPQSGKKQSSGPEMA
Sequence of CDK3/Cyclin E (Homo sapiens) (Q00526 whole entry, looked up): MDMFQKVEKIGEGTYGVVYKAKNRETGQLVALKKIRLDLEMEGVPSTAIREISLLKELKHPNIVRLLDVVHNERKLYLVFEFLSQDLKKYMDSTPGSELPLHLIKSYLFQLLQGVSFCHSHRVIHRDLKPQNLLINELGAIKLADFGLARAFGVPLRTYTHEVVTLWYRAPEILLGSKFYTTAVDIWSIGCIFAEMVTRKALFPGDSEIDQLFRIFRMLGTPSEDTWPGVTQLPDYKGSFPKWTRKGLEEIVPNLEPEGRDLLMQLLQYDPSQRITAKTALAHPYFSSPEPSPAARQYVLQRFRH

In the case of `Cc1ccccc1Nc1nc(Nc2ccc(N3CCN(C)CC3)cn2)ncc1Cl`, the GI50 – broadly, the concentration that inhibits growth by half – in the data set on MDA-MB-231 [1] came to 7.47 µM; in the data set on MCF7, 5.21 µM; with Jurkat, 8.08 µM. Moreover, the figures for the pIC50 at CDK6/cyclin D3, at CDK2/Cyclin A2 and against CDK9/Cyclin K were 7.80, < 5.00 and 6.82, respectively. In addition, the 50% growth inhibitory concentration (GI50) at 48 h in [2] came out at 5.98 µM. The Ratio IC50 in the data set filed under Homo sapiens came out at 10.

On to `CC(=O)Nc1cccc(Nc2nc(Nc3ccc(N4CCN(C)CC4)cn3)ncc2Cl)c1`, for which the result in the data set on MDA-MB-231 [3] and in the data set with MDA-MB-231 [10] was inactive. Also, the result (in the data set on MDA-MB-231 [4]; in data set [7]; in the data set on MDA-MB-231 [13]; in the data set on MDA-MB-231 [16]; in data set [17]) was Active. Further, the inhibition result in [5], in data set [11], in data set [14], in [15], in [18] and in [19] was “Active” in each case. Also, the inhibition in data set [6] and in data set [12] was < 6.6% throughout. Further, in the data set on MDA-MB-231 [8], the TGI entry was “Dose-dependent effect”. Besides, the Activity result in the data set on MDA-MB-231 [9] was “Dose-dependent effect”.

Take `CN1CCN(c2ccc(Nc3ncc(Cl)c(Nc4ccccc4F)n3)nc2)CC1`: the inhibition result in the data set on MDA-MB-231 [1], with MCF7 and in the data set on Jurkat was “Active” in each case. For the same compound, the inhibition entry in [20] and in [21] was “inactive” each time.

Turning to `CCN1CCN(Cc2ccc(Nc3ncc(F)c(-c4cc(F)c5nc(C)n(C(C)C)c5c4)n3)nc2)CC1` [ABEMACICLIB], the GI50 with MDA-MB-231 [1] was 3.45 µM; with MCF7 it was 4.01 µM; with Jurkat, 4.63 µM. Also, the TGI result in the data set with MDA-MB-231 [22] is “Active”.

For `CC(=O)Nc1cccc(Nc2nc(Nc3ccc(N4CCN(C)CC4)cn3)ncc2Cl)c1.Cl`, the solubility thermodynamic in data set [23] amounted to 7700 µg/mL; in data set [24], 3960 µg/mL.

With `CC(=O)c1c(C)c2cnc(Nc3ccc(N4CCNCC4)cn3)nc2n(C2CCCC2)c1=O` [PALBOCICLIB], the concentration for 50% growth inhibition (GI50) with MDA-MB-231 [1], with MCF7 and in the data set on Jurkat was > 100 µM in each case. For the same compound, the Activity was determined as 4.98% in the data set with MDA-MB-231 [25]; 91.91% with MDA-MB-231 [26]; 3.43% with MDA-MB-231 [27]; 2.32% in the data set on MDA-MB-231 [29]; 5.26% in the data set on MDA-MB-231 [30]; 3.12% in the data set with MDA-MB-231 [31]. For the same compound, the 50% growth inhibitory concentration (GI50) at 48 h in data set [2] was > 100 µM. For the same compound, the viability at 20 µM with MDA-MB-231 [28] was found to be 89%.
